Experimental data taken from US20250099448A1, “HETEROCYCLIC COMPOUNDS” (Hoffmann-La Roche Inc., priority 2022, published 2025).

Target: T1, MAGL protein (Homo sapiens, UniProt Q99685)
T1 sequence (Q99685 1-303): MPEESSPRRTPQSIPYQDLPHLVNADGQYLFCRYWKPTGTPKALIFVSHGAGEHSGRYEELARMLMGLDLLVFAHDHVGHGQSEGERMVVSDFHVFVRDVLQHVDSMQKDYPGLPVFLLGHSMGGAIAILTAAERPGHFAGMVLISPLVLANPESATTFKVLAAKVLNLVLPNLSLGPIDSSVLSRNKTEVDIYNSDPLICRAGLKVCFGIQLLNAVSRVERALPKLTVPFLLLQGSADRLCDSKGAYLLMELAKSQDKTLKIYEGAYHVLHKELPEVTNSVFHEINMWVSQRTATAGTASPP
Experiment: 2-AG assay: MAGL inhibitory activity by hydrolysis of 2-arachidonoylglycerol to arachidonic acid, followed by mass spectrometry
Assay type: biochemical
Conditions: 8 μM 2-arachidonoylglycerol, 15 min preincubation, 30 min reaction at RT, RapidFire MS readout
Procedure: Compounds of formula (I) were profiled for MAGL inhibitory activity by determining the enzymatic activity by following the hydrolysis of the natural substrate 2-arachidonoylglycerol (2-AG) resulting in arachidonic acid, which can be followed by mass spectrometry. This assay is hereinafter abbreviated “2-AG assay”. The 2-AG assay was carried out in 384 well polypropylene assay plates. Compound dilutions were made in 100% DMSO in a polypropylene plate in 3-fold dilution steps to give a final concentration range in the assay from 12.5 μM to […]. Compound dilutions were added to MAGL protein in assay buffer (50 mM TRIS, 1 mM EDTA, 0.01% (v/v) Tween-20, 2.5% (v/v) DMSO). After shaking, the plate was incubated for 15 min at RT. To start the reaction, 2-arachidonoylglycerol in assay buffer was added. The final concentrations in the assay was […] for MAGL protein and 8 μM 2-arachidonoylglyerol. After shaking and 30 min incubation at RT, the reaction was quenched by the addition of two assay volumes of acetonitrile containing 4 μM of d8-arachidonic acid. The amount of arachidonic acid formed was traced by an online SPE system (Agilent Rapidfire) coupled to a triple quadrupole mass spectrometer. A C18 SPE cartridge (Agilent G9205A) was used in an acetonitrile/water liquid setup. The mass spectrometer was operated in negative electrospray mode following the mass transitions 303.1→259.1 for arachidonic acid and 311.1→267.0 for d8-arachidonic acid. The activity of the compounds was calculated based on the ratio of intensities [arachidonic acid/d8-arachidonic acid].

IC50 [nM]	SMILES
0.08	N=S(=O)(c1cccc(CC2CC3(C2)CN(C(=O)N2CC4(CC(c5nnc(C6CC6)[nH]5)C4)C2)C3)c1)C(F)(F)F (racemic) [compound 125]
3.5	N#Cc1cc(C(F)(F)F)ncc1OC1CCC2(C1)CN(C(=O)N1CC3(CC(c4nnc(C5CC5)[nH]4)C3)C1)C2 (racemic) [compound 154]
1.99	CS(=O)(=O)c1ccc(OC2CCC3(C2)CN(C(=O)N2CC4(CC(c5nnc(C6CC6)[nH]5)C4)C2)C3)cc1C(F)(F)F (racemic) [compound 155]
0.06	N=[S@](=O)(c1cccc(CC2CC3(C2)CN(C(=O)N2CC4(CC(c5nnc(C6CC6)[nH]5)C4)C2)C3)c1)C(F)(F)F (single isomer, unassigned) [compound 126]
0.06	N=[S@@](=O)(c1cccc(CC2CC3(C2)CN(C(=O)N2CC4(CC(c5nnc(C6CC6)[nH]5)C4)C2)C3)c1)C(F)(F)F (single isomer, unassigned) [compound 127]
0.16	N=[S@@](=O)(c1ccc(CC2CC3(C2)CN(C(=O)N2CC4(CC(c5nnc(C6CC6)[nH]5)C4)C2)C3)cc1)C(F)(F)F (single isomer, unassigned) [compound 128]
0.1	N=[S@](=O)(c1ccc(CC2CC3(C2)CN(C(=O)N2CC4(CC(c5nnc(C6CC6)[nH]5)C4)C2)C3)cc1)C(F)(F)F (single isomer, unassigned) [compound 129]
0.17	O=C(N1CC2(CCC(Cc3ncc(F)cc3F)C2)C1)N1CC2(CC(c3nnc(C4CC4)[nH]3)C2)C1 (single isomer, unassigned) [compound 148]
0.39	O=C(N1CC2(CCC(Cc3ncc(F)cc3F)C2)C1)N1CC2(CC(c3nnc(C4CC4)[nH]3)C2)C1 (single isomer, unassigned) [compound 149]
0.82	O=C(N1CC2(CCC(Cc3cnc(C(F)(F)F)cn3)C2)C1)N1CC2(CC(c3nnc(C4CC4)[nH]3)C2)C1 (single isomer, unassigned) [compound 150]
0.51	O=C(N1CC2(CCC(Cc3cnc(C(F)(F)F)cn3)C2)C1)N1CC2(CC(c3nnc(C4CC4)[nH]3)C2)C1 (single isomer, unassigned) [compound 151]
33.9	O=C(N1CC(c2ccc(C3(C(F)(F)F)CC3)cc2)C1)N1CC2(CC(c3nnc([C@@H](O)C(F)(F)F)[nH]3)C2)C1 (single isomer, unassigned) [compound 229]
3.89	O=C(N1CC(c2ccc(C3(C(F)(F)F)CC3)cc2)C1)N1CC2(CC(c3nnc([C@H](O)C(F)(F)F)[nH]3)C2)C1 (single isomer, unassigned) [compound 230]
4.38	O=C(N1CC(c2cnc(N3CC[C@@H](C(F)(F)F)C3)nc2)C1)N1CC2(CC(c3nc(C4CC4)n[nH]3)C2)C1 (single isomer, unassigned) [compound 265]
2.93	O=C(N1CC(c2cnc(N3CC[C@H](C(F)(F)F)C3)nc2)C1)N1CC2(CC(c3nc(C4CC4)n[nH]3)C2)C1 (single isomer, unassigned) [compound 266]
4.93	O=C(N1CC(c2ccc(N3CCC(O)(C(F)(F)F)C3)nc2)C1)N1CC2(CC(c3nnc(C4CC4)[nH]3)C2)C1 (single isomer, unassigned) [compound 270]
2.73	O=C(N1CC(c2ccc(N3CCC(O)(C(F)(F)F)C3)nc2)C1)N1CC2(CC(c3nnc(C4CC4)[nH]3)C2)C1 (single isomer, unassigned) [compound 271]
5.16	O=C(N1CC(c2ccc(N3CCC(C(F)(F)F)CC3=O)cc2)C1)N1CC2(CC(c3nnc(C4CC4)[nH]3)C2)C1 (single isomer, unassigned) [compound 279]
3.82	O=C(N1CC(c2ccc(N3CCC(C(F)(F)F)CC3=O)cc2)C1)N1CC2(CC(c3nnc(C4CC4)[nH]3)C2)C1 (single isomer, unassigned) [compound 280]

Continued, compound first:

SMILES	IC50 [nM]
O=C(N1CC(c2ccc([C@H]3C[C@H](C(F)F)C3)cc2)C1)N1CC2(CC(c3nnc(C4CC4)[nH]3)C2)C1 (single isomer, unassigned) [Example 304, Trans-[6-(5-Cyclopropyl-4H-1,2,4-triazol-3-yl)-2-azaspiro[3.3]heptan-2-yl]-[3-[4-[3-(difluoromethyl)cyclobutyl]phenyl]azetidin-1-yl]methanone]	0.18
O=C(N1CC(c2ccc([C@H]3C[C@@H](C(F)F)C3)cc2)C1)N1CC2(CC(c3nnc(C4CC4)[nH]3)C2)C1 (single isomer, unassigned) [Example 305, cis-[6-(5-Cyclopropyl-4H-1,2,4-triazol-3-yl)-2-azaspiro[3.3]heptan-2-yl]-[3-[4-[3-(difluoromethyl)cyclobutyl]phenyl]azetidin-1-yl]methanone]	0.07
O=C(N1CC(OCc2ccc(C(F)(F)F)cc2F)C1)N1CC2(CC(c3nnc([C@@H](O)C(F)(F)F)[nH]3)C2)C1 (single isomer, unassigned) [Example 388]	410
O=C(N1CC(OCc2ccc(C(F)(F)F)cc2F)C1)N1CC2(CC(c3nnc([C@H](O)C(F)(F)F)[nH]3)C2)C1 (single isomer, unassigned) [Example 389]	15.2
N=[S@](=O)(c1ccc(CC2CC3(C2)CN(C(=O)N2CC4(CC(c5nnc(C6(N)CC6)[nH]5)C4)C2)C3)cc1)C(F)(F)F (stereo in doubt) [Example 474, [6-[5-(1-aminocyclopropyl)-4H-1,2,4-triazol-3-yl]-2-azaspiro[3.3]heptan-2-yl]-[6-[[4-(trifluoromethyl-sulfonimidoyl)phenyl]methyl]-2-azaspiro[3.3]heptan-2-yl]methanone]	4.59
O=C(N1CC(c2ccc(NC3(C(F)(F)F)CC3)nc2)C1)N1CC2(CC(c3nnc(C4CC4)[nH]3)C2)C1 [Example 1, [6-(5-cyclopropyl-4H-1,2,4-triazol-3-yl)-2-azaspiro[3.3]heptan-2-yl]-[3-[6-[[1-(trifluoromethyl)cyclopropyl]amino]-3-pyridyl]azetidin-1-yl]methanone]	0.94
O=C(N1CC2(CC(Cc3cnc(C(F)(F)F)cn3)C2)C1)N1CC2(CC(c3nnc(C4CC4)[nH]3)C2)C1 [Example 3]	0.69
O=C(N1CC2(CC(c3nnc(C4CCC4)[nH]3)C2)C1)N1CC2(CN(Cc3ccc(F)cc3F)C2)C1 [Example 158, [6-(5-cyclobutyl-4H-1,2,4-triazol-3 yl)-2-azaspiro[3.3]heptan-2-yl]-[6-[(2,4-difluorophenyl)methyl]-2,6-diazaspiro[3.3]heptan-2-yl]methanone]	150
COC(=O)c1ccccc1CN1CC2(C1)CN(C(=O)N1CC3(CC(c4nnc(C5CC5)[nH]4)C3)C1)C2 [Example 171, methyl 2-[[2-[6-(5-cyclopropyl-4H-1,2,4-triazol-3-yl)-2-azaspiro[3.3]heptane-2-carbonyl]-2,6-diazaspiro[3.3]heptan-6-yl]methyl]benzoate]	9.21
O=C(O)c1ccccc1CN1CC2(C1)CN(C(=O)N1CC3(CC(c4nnc(C5CC5)[nH]4)C3)C1)C2 [Example 172, 2-[[2-[6-(5-cyclopropyl-4H-1,2,4-triazol-3-yl)-2-azaspiro[3.3]heptane-2-carbonyl]-2,6-diazaspiro[3.3]heptan-6-yl]methyl]benzoic Acid]	502
O=C(N1CC2(CC(c3nnc(C4CC4)[nH]3)C2)C1)N1CC2(C1)CN(C(=O)C(F)(F)F)C2 [Example 217, 1-[2-[6-(5-cyclopropyl-4H-1,2,4-triazol-3-yl)-2-azaspiro[3.3]heptane-2-carbonyl]-2,6-diazaspiro[3.3]heptan-6-yl]-2,2,2-trifluoro-ethanone]	3580
O=C(N1CC(c2ccc(N3CCC4(COC4)C3)nc2)C1)N1CC2(CC(c3nnc(C4CC4)[nH]3)C2)C1 [Example 303, [6-(5-cyclopropyl-4H-1,2,4-triazol-3-yl)-2-azaspiro[3.3]heptan-2-yl]-[3-[6-(2-oxa-7-azaspiro[3.4]octan-7 yl)-3-pyridyl]azetidin-1-yl]methanone]	6.31
O=C(N1CC2(CC(c3nnc(C4CC4)[nH]3)C2)C1)N1CC(O)(c2ccc(N3CC(C(F)(F)F)C3)cc2)C1 [Example 306, [6-(5-Cyclopropyl-4H-1,2,4-triazol-3 yl)-2-azaspiro[3.3]heptan-2-yl]-[3-hydroxy-3-[4-[3-(trifluoromethyl)azetidin-1-yl]phenyl]azetidin-1 yl)methanone]	2.19
CC(C)(C(=O)O)c1cccc(OC2CN(C(=O)N3CC4(CC(c5nnc(C6CC6)[nH]5)C4)C3)C2)c1 [Example 387, 2-[3-[1-[6-(5-cyclopropyl-4H-1,2,4-triazol-3-yl)-2-azaspiro[3.3]heptane-2-carbonyl]azetidin-3-yl]oxyphenyl]-2-methyl-propanoic Acid]	79.6
